≈ marks a conversion by molar mass, not a printed value.
Experiments:
[1] = Stability of the compound in mouse plasma at 10 uM assessed as compound remaining after 4 hrs by LC-MS/MS analysis; format: ADME, cell-free; conditions: read-out: Stability
[2] = Half life in mouse at 50 mg/kg, po administered via gavage cotreated with 50 mg/kg ritonavir; format: ADME, organism-based; conditions: in vivo
in vitro = conditions: mouse, plasma
Ebolavirus [3] = assay: Antiviral activity against VSV pseudotyped Ebolavirus expressing M-GFP infected in African green monkey Vero E6 cells assessed as inhibition of viral infection pre-incubated for 2 hrs before infection and measured after 8 to 12 hrs in presence of 10% FBS and 50% NHS by fluorescence microscopic method; format: functional; conditions: Orthoebolavirus, Vero C1008
Ebolavirus [4] = assay: Antiviral activity against recombinant VSV pseudotyped Ebolavirus expressing M-GFP infected in African green monkey Vero E6 cells assessed as inhibition of viral infection pre-incubated for 2 hrs before infection and measured after 8 to 12 hrs in presence of 50% NHS by fluorescence microscopic method; format: functional, Vero C1008
[5] = Tmax in mouse at 50 mg/kg, po administered via gavage cotreated with 50 mg/kg ritonavir; format: ADME, organism-based; conditions: in vivo
[6] = Cmax in mouse at 50 mg/kg, po administered via gavage cotreated with 50 mg/kg ritonavir; format: ADME, organism-based; set-up: dose 50 mg/kg, route oral; conditions: in vivo
physchem = conditions: phosphate buffered saline, pH 7.4
[7] = Clearance in mouse at 50 mg/kg, po administered via gavage cotreated with 50 mg/kg ritonavir; format: ADME, organism-based; conditions: in vivo
[8] = Half life in mouse liver microsomes at 1 uM after 60 mins in presence of NADPH by LC-MS/MS analysis; format: ADME, microsome
[9] = Concentration in mouse plasma at 50 mg/kg, po administered via gavage cotreated with 50 mg/kg ritonavir; format: ADME, organism-based; conditions: in vivo
[10] = Half life in mouse liver microsomes at 1 uM after 60 mins in presence of NADPH and ritonavir by LC-MS/MS analysis; format: ADME, microsome; conditions: with ritonavir (concentration not stated)
[11] = AUClast in mouse at 50 mg/kg, po administered via gavage cotreated with 50 mg/kg ritonavir; format: ADME, organism-based; set-up: dose 50 mg/kg, route oral, time 0 - last; conditions: in vivo
[12] = Half life in human liver microsomes at 1 uM after 60 mins in presence of NADPH by LC-MS/MS analysis; format: ADME, microsome
Ebolavirus [13] = assay: Antiviral activity against VSV pseudotyped Ebolavirus expressing M-GFP infected in African green monkey Vero E6 cells assessed as inhibition of viral infection pre-incubated for 2 hrs before infection and measured after 8 to 12 hrs by fluorescence microscopic method; format: functional, Vero C1008
[14] = AUClast in mouse at 25 mg/kg, po administered via gavage cotreated with 20 mg/kg ritonavir; format: ADME, organism-based; set-up: dose 25 mg/kg, route oral, time 0 - last; conditions: in vivo
[15] = Clearance in mouse at 25 mg/kg, po administered via gavage cotreated with 20 mg/kg ritonavir; format: ADME, organism-based; conditions: in vivo
[16] = Concentration in mouse plasma at 25 mg/kg, po administered via gavage cotreated with 20 mg/kg ritonavir; format: ADME, organism-based; conditions: in vivo
[17] = Clearance in mouse at 25 mg/kg, po administered via gavage; format: ADME, organism-based; conditions: in vivo
[18] = Cmax in mouse at 25 mg/kg, po administered via gavage cotreated with 20 mg/kg ritonavir; format: ADME, organism-based; set-up: dose 25 mg/kg, route oral; conditions: in vivo
[19] = Concentration in mouse plasma at 25 mg/kg, po administered via gavage after 12 hrs; format: ADME, organism-based
in vivo = conditions: mouse, po, 25 mg/kg
Ebolavirus [20] = assay: Antiviral activity against Ebolavirus isolate Kikwit infected in human HeLa cells assessed as inhibition of viral infection pretreated for 2 hrs before viral infection and measured after 48 hrs by EboV GP immunostaining based method; format: functional, cell-based; conditions: Orthoebolavirus
Ebolavirus [21] = assay: Antiviral activity against Ebolavirus isolate Makona infected in human HeLa cells assessed as inhibition of viral infection pretreated for 2 hrs before viral infection and measured after 48 hrs by EboV GP immunostaining based method; format: functional, cell-based; conditions: Orthoebolavirus
Ebolavirus [22] = assay: Antiviral activity against Ebola virus - Mayinga, Zaire, 1976 infected in human HeLa cells assessed as inhibition of viral infection pretreated for 2 hrs before viral infection and measured after 48 hrs by EboV GP immunostaining based method; format: functional, cell-based; conditions: Orthoebolavirus

[2H]C([2H])(c1cc(Cl)ccc1NCc1ccc(S(C)(=O)=O)cc1)N1CCN(C(=O)CNC(=O)C2CC23CCC(F)(F)CC3)CC1 (single isomer, unassigned; (-))
remaining at 4 h, 10 µM [1]: 72%
half-life [2]: 1.7 h
fraction unbound at 6 h (in vitro): 0.002
IC50 (Ebolavirus [3]): 109 nM
IC50 (Ebolavirus [4]; Orthoebolavirus, Vero C1008): 21 nM
Tmax [5]: 7.3 h
Cmax [6]: 7.4 µM
solubility kinetic (physchem): 4 µM (≈ 2.5 µg/mL)
CL/F [7]: 12.5 mL/min/kg
half-life at 1 µM [8]: 2 min
concentration [9]: 5.7 µM
half-life at 1 µM [10]: 1.45 h
AUC(0-t) [11]: 108 µM·h
half-life at 1 µM [12]: 0.0167 h

[2H]C([2H])(c1cc(Cl)ccc1N)N1CCN(C(=O)CNC(=O)CC2CCC(F)(F)CC2)CC1
remaining at 4 h, 10 µM [1]: 86%
IC50 (Ebolavirus [13]; Orthoebolavirus, Vero C1008): 347 nM
IC50 (Ebolavirus [4]; Orthoebolavirus, Vero C1008): 1200 nM
AUC(0-t) [14]: 76.8 µM·h
CL/F [15]: 12.3 mL/min/kg
concentration [16]: 1.7 µM
CL/F [17]: 49 mL/min/kg
Cmax [18]: 12 µM
concentration at 12 h [19]: 0.2 µM
half-life (in vivo): 2.3 h
half-life at 1 µM [10]: > 2 h

CS(=O)(=O)c1ccc(COc2ccc(Cl)cc2CN2CCN(C(=O)CNC(=O)CC3CCC(F)(F)CC3)CC2)cc1
remaining at 4 h, 10 µM [1]: 30%
IC50 (Ebolavirus [4]; Orthoebolavirus, Vero C1008): 38 nM
half-life at 1 µM [10]: > 2 h

[2H]C([2H])(c1cc(Cl)ccc1N)N1CCN(C(=O)CNC(=O)C2CC23CCC(F)(F)CC3)CC1 (single isomer, unassigned; (-))
remaining at 4 h, 10 µM [1]: 88%
half-life [2]: 3.2 h
fraction unbound at 6 h (in vitro): 0.121
IC50 (Ebolavirus [13]; vero c1008): 51 nM
IC50 (Ebolavirus [4]; Orthoebolavirus, Vero C1008): 163 nM
Tmax [5]: 1.7 h
Cmax [6]: 19.5 µM
solubility kinetic (physchem): 78 µM (≈ 35.6 µg/mL)
CL/F [7]: 15.5 mL/min/kg
half-life at 1 µM [8]: 3 min
concentration [9]: 2 µM
half-life at 1 µM [10]: 1.52 h
AUC(0-t) [11]: 121 µM·h
half-life at 1 µM [12]: 0.267 h

O=C(CC12CC3(F)CC(F)(CC(F)(C3)C1)C2)NCC(=O)N1CCN(Cc2ccccc2OCc2ccc(Br)cc2)CC1
IC50 (Ebolavirus [13]; Orthoebolavirus, Vero C1008): 200 nM
half-life at 1 µM [8]: 1 min

CS(=O)(=O)c1ccc(CNc2ccc(Cl)cc2CN2CCN(C(=O)CNC(=O)C3CC34CCC(F)(F)CC4)CC2)cc1 (racemic)
EC50 (Ebolavirus [20]): 35 nM
EC50 (Ebolavirus [21]): 17 nM
EC50 (Ebolavirus [22]): 9 nM
IC50 (Ebolavirus [4]; Orthoebolavirus, Vero C1008): 40 nM

CS(=O)(=O)c1ccc(CNc2ccc(Cl)cc2CN2CCN(C(=O)CNC(=O)CC3CCC(F)(F)CC3)CC2)cc1
EC50 (Ebolavirus [20]): 33 nM
EC50 (Ebolavirus [21]): 52 nM
EC50 (Ebolavirus [22]): 12 nM
IC50 (Ebolavirus [4]; Orthoebolavirus, Vero C1008): 28 nM

CS(=O)(=O)c1ccc(COc2ccc(Cl)cc2CN2CCN(C(=O)CNC(=O)C3CC34CCC(F)(F)CC4)CC2)cc1 (racemic)
EC50 (Ebolavirus [20]): 420 nM
EC50 (Ebolavirus [21]): 140 nM
EC50 (Ebolavirus [22]): 210 nM
IC50 (Ebolavirus [4]; Orthoebolavirus, Vero C1008): 35 nM

O=C(CC12CC3CC(CC(C3)C1)C2)NCC(=O)N1CCN(Cc2ccccc2OCc2ccc(-c3ncco3)cc2)CC1
remaining at 4 h, 10 µM [1]: 37%
fraction unbound at 6 h (in vitro): 0.003
IC50 (Ebolavirus [13]; Orthoebolavirus, Vero C1008): 270 nM
solubility kinetic (physchem): 5 µM (≈ 2.91 µg/mL)
half-life at 1 µM [8]: 1 min

COC(=O)c1ccc(COc2ccccc2CN2CCN(C(=O)CNC(=O)CC34CC5CC(CC(C5)C3)C4)CC2)cc1
EC50 (Ebolavirus [21]): 160 nM
IC50 (Ebolavirus [13]; Orthoebolavirus, Vero C1008): 13 nM
IC50 (Ebolavirus [4]; Orthoebolavirus, Vero C1008): 64 nM
solubility kinetic (physchem): 5.3 µM (≈ 3.04 µg/mL)
half-life at 1 µM [8]: 1 min
half-life at 1 µM [12]: 0.02 h

Nc1ccc(Cl)cc1CN1CCN(C(=O)CNC(=O)CC2CCC(F)(F)CC2)CC1
remaining at 4 h, 10 µM [1]: 94%
fraction unbound at 6 h (in vitro): 0.131
IC50 (Ebolavirus [13]; Orthoebolavirus, Vero C1008): 340 nM
solubility kinetic (physchem): > 100 µM

CS(=O)(=O)c1ccc(COc2ccc(Cl)cc2CN2CCN(C(=O)CNC(=O)C3CC34CCC(F)(F)CC4)CC2)cc1 (stereo in doubt; 3-22)
remaining at 4 h, 10 µM [1]: 69%
half-life [2]: 3.2 h
fraction unbound at 6 h (in vitro): 0.024
IC50 (Ebolavirus [3]): 93 nM
IC50 (Ebolavirus [4]; vero c1008): 19 nM
Tmax [5]: 4 h
Cmax [6]: 10.4 µM
solubility kinetic (physchem): 10 µM (≈ 6.24 µg/mL)
CL/F [7]: 11.9 mL/min/kg
concentration [9]: 4.7 µM
half-life at 1 µM [10]: > 2 h
AUC(0-t) [11]: 116 µM·h

COC(=O)c1ccc(Oc2cc(Cl)cc(CN3CCN(C(=O)CNC(=O)CC45CC6CC(CC(C6)C4)C5)CC3)c2)cc1
IC50 (Ebolavirus [13]; Orthoebolavirus, Vero C1008): 16 nM

COC(=O)c1ccc(COc2ccccc2CN2CCN(C(=O)CNC(=O)CC3(C)CCCCC3)CC2)cc1
IC50 (Ebolavirus [13]; Orthoebolavirus, Vero C1008): 80 nM

[2H]C([2H])(c1cc(Cl)ccc1N)N1CCN(C(=O)CNC(=O)C2CC23CCC(F)(F)CC3)CC1 (racemic)
IC50 (Ebolavirus [13]; vero c1008): 94 nM

NS(=O)(=O)c1ccc(COc2ccccc2CN2CCN(C(=O)CNC(=O)CC34CC5CC(CC(C5)C3)C4)CC2)cc1
IC50 (Ebolavirus [13]; Orthoebolavirus, Vero C1008): 350 nM

Nc1ccc(Cl)cc1CN1CCN(C(=O)CNC(=O)C2CC23CCC3)CC1 (racemic)
IC50 (Ebolavirus [13]; Orthoebolavirus, Vero C1008): 2500 nM
